Source: PMC6803673, “Molecular features of the UNC-45 chaperone critical for binding and folding muscle myosin” (Nature Communications, 2019)
Residue numbers refer to the chain shown, from its start. In names and notes the source's numbering stands. One block for each molecule: values may come before it.

Assays:
[1] = target: T1, MHC-B (myosin II heavy chain isoform B, UNC-54) motor domain (Caenorhabditis elegans, UniProt P02566); assay: stopped-flow single turnover, intrinsic tryptophan fluorescence; format: biochemical; details: no actin; 20 mM MOPS pH 7.0, 25 mM KCl, 5 mM MgCl2, 20 °C
T1 construct: motor domain, residues 1-790, C-terminal His6-tag, co-expressed with C. elegans UNC-45 in High Five insect cells, monomeric
T1 sequence (P02566 1-790): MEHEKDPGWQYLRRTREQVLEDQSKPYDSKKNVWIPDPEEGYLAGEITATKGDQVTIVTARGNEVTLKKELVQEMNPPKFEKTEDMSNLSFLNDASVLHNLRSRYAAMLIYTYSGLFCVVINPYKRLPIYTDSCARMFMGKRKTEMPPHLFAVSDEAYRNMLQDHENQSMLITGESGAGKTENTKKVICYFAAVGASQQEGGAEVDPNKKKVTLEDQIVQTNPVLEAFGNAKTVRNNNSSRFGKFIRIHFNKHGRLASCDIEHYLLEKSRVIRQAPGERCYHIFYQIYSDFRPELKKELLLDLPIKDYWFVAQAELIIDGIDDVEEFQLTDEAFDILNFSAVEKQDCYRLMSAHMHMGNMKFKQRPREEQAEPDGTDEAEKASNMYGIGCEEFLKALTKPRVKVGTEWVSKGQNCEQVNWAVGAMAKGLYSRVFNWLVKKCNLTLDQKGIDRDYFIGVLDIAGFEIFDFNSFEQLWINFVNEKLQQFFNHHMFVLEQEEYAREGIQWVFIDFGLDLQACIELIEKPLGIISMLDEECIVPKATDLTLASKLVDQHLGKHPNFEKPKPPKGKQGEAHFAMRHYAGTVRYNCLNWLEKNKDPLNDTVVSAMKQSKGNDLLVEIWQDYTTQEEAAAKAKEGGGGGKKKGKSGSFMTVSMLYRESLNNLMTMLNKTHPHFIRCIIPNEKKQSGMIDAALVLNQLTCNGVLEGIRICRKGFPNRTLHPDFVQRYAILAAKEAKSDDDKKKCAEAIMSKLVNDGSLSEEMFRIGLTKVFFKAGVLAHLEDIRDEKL

[2] = target: T1, MHC-B (myosin II heavy chain isoform B, UNC-54) motor domain; assay: X-ray crystal structure, […] A; details: nucleotide-binding pocket of the motor domain; crystals pH 6.5, 4 °C
[3] = target: T2, UNC-45 wild type (bacterial) (C. elegans, UniProt G5EG62 1-961); assay: SEC; myosin incubated at 27 °C for 60 min, then with UNC-45 (wild-type or ts-mutant) on ice for 60 min; S200 PC 3.2 column, 20 mM Tris pH 8.0, 150 mM NaCl; details: both partners purified
T2 construct: UNC-45, C. elegans myosin chaperone, wild type; also called wt UNC-45; wt chaperone; source: E. coli BL21(RIL), purified (NiNTA, anion exchange, SEC)
T2 sequence: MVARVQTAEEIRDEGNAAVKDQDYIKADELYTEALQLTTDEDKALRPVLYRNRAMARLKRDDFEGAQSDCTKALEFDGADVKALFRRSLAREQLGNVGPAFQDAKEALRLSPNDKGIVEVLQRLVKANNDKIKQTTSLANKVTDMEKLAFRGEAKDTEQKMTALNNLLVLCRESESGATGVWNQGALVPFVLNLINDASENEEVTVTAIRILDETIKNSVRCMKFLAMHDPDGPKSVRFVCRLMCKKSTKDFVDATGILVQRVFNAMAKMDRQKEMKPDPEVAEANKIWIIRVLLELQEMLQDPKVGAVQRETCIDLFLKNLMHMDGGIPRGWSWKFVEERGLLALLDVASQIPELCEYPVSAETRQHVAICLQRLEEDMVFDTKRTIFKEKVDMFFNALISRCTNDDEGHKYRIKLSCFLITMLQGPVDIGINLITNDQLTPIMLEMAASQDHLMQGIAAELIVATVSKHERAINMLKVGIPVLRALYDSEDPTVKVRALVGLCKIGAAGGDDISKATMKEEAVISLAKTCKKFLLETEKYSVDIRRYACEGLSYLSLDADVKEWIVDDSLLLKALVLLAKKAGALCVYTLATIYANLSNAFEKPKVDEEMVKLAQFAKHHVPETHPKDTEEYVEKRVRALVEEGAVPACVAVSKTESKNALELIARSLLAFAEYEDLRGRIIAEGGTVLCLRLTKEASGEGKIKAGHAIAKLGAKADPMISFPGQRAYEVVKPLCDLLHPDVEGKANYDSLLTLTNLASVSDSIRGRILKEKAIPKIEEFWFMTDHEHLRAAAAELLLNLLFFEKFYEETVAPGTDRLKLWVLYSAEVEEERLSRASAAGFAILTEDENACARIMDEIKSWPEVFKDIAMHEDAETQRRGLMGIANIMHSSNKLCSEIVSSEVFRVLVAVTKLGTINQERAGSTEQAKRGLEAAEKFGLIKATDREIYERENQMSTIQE

[4] = target: the molecule itself; assay: crystal structure; UNC-45 mutant crystals grown by sitting drop vapor diffusion at 19 °C

Molecule: Nc1ncnc2c1ncn2[C@@H]1O[C@H](COP(=O)(O)OP(=O)(O)OP(=O)(O)O)[C@@H](O)[C@H]1O [ATP]
stopped-flow single turnover, intrinsic tryptophan fluorescence [1]: Upon ATP binding to the myosin motor domain Trp fluorescence is enhanced

Molecule: Nc1ncnc2c1ncn2[C@@H]1O[C@H](COP(=O)(O)OP(=O)(O)O)[C@@H](O)[C@H]1O [ADP]
X-ray crystal structure, 1.9 A [2]: we crystallized MHC-B and determined the structure of the ADP-bound state

binding result [3]: binds
B1: MHC-B muscle myosin motor domain (residues 1–790) (domain or fragment, C. elegans, UniProt P02566 1-790, looked up)
chain: T1 sequence (P02566 1-790)
notes: C. elegans body wall muscle myosin II heavy chain isoform B (MHC-B, UNC-54), motor domain, residues 1-790, cloned from C. elegans cDNA; In the SEC assays with UNC-45 the protein was heat-damaged (unfolded or misfolded) at 27 °C; Two vectors (pFastBac DUAL, pACEBac1) encode the same 1-790 His6 protein; also called myosin II heavy chain isoform B; UNC-54; source: High Five insect cells, …

B2: UNC-45 G427E (ts mutant, bacterial) (natural protein, C. elegans, UniProt G5EG62 1-961, looked up)
chain: T2 sequence with G427E
notes: UNC-45, C. elegans, temperature-sensitive point mutant G427E; the SEC assays used the native protein; also called tsG427E; source: E. coli BL21(RIL), purified (NiNTA, anion exchange, SEC); SeMet protein from B834-DE3 cells
binding result [4]: binds
